In patent US11945822B2, “Pyrazolo-triazine and/or pyrazolo-pxrimidine derivatives as selective inhibitor of cyclin dependent kinase” (QURIENT CO., LTD., priority 2018, dated 2024):

Experiments:
H460 = assay: Cellular H460 viability assay (CellTiter-Glo, 72 hours); assay type: cell-based; settings: Homo sapiens, NCI-H460
How it was run: (§1)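 CellTiter-Glo luminescence read in duplicate after 72 h compound exposure (37 °C, 5% CO2); DMSO-only control, final DMSO under 0.1%.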

CDK1/Cyclin B = target: T1, CDK1/Cyclin B (Homo sapiens, UniProt P06493); assay: Enzymatic assay for CDK1 (FRET based LANCE Ultra kinase assay); assay type: biochemical; settings: read-out: CDK1 enzymatic activity (IC50 range)
T1 construct: purchased Invitrogen PR4768C
How it was run: (§2)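 Each CDK complex ([…]) phosphorylated 68 nM ULight-MBP peptide with ATP at Km for 60 min at 23° C., against 8 compound doses (4-fold dilutions). EDTA/Eu-anti-phospho-MBP detection, 60 min, then TR-FRET emission at 615 and 665 nm.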

HCT116 = assay: Cellular HCT116 viability assay (CellTiter-Glo, 72 hours); assay type: cell-based; settings: Homo sapiens, HCT-116
How it was run: as §1

CDK7/Cyclin H/MNAT1 = target: T2, CDK7/Cyclin H/MNAT1 (Homo sapiens, UniProt P50613); assay: Enzymatic assay for CDK7 (FRET based LANCE Ultra kinase assay); assay type: biochemical; settings: for IC50: read-out: CDK7 enzymatic activity (IC50 range)
T2 construct: purchased Invitrogen PR6749B
How it was run: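 Inhibition was measured at Km ATP by time-resolved FRET between a Eu anti-phospho antibody and a phosphorylated ULight peptide. The enzyme was the purified CDK7/cyclin complex, and data were curve-fitted.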

MOLT-4 = assay: Cellular MOLT-4 viability assay (CellTiter-Glo, 72 hours); assay type: cell-based; settings: Homo sapiens, MOLT4 viability assay
Experimental: (§3) All cell lines were routinely tested for mycoplasma.
(§4) The effect of the CDK7 inhibitor to inhibit the growth of target cancer cells was evaluated through the 72 hours time period of viability assay. Briefly, the candidate cell line ware plated in 96 well plate at the following density of cells respectively. […] DMSO solvent without compound served as a control and final DMSO concentration less than 0.1%. After 72 hours of incubation at 37° C., 5% CO2 incubator, cells were analyzed for the viability using the CellTiter-Glo Luminescent Cell Viability Assay (Promega, Cat #G7570). All viability assays were performed in duplicate and Luminescence was read using an Envision (Perkin Elmer, USA). Data was analyzed using XLfit software.

CDK2/Cyclin A = target: T3, CDK2/Cyclin A (Homo sapiens, UniProt P24941); assay: Enzymatic assay for CDK2 (FRET based LANCE Ultra kinase assay); assay type: biochemical; settings: read-out: CDK2 enzymatic activity (IC50 range)
T3 construct: purchased Invitrogen PV6290
How it was run: as §2

CDK5/p25 = target: T4, CDK5/p25 (Homo sapiens, UniProt Q00535); assay: Enzymatic assay for CDK5 (FRET based LANCE Ultra kinase assay); assay type: biochemical; settings: read-out: CDK5 enzymatic activity (IC50 range)
T4 construct: purchased Invitrogen PR8543B
How it was run: as §2

RPMI-8226 = assay: Cellular RPMI-8226 viability assay (CellTiter-Glo, 72 hours); assay type: cell-based; settings: Homo sapiens
Experimental: as §3, §4

MV4-11 = assay: Cellular MV4-11 viability assay (CellTiter-Glo, 72 hours); assay type: cell-based; settings: Homo sapiens
How it was run: as §1

T4 sequence (Q00535 whole entry): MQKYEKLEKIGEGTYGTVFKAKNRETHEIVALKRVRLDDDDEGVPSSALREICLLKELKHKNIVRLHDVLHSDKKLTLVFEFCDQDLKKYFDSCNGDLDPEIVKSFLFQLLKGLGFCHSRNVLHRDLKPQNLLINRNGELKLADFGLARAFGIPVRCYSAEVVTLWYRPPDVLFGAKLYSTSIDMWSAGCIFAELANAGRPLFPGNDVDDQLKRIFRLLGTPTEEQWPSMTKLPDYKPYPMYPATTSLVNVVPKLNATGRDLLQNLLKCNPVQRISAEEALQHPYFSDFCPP
T4 sequence (Q15078 99-307 partner limits assumed): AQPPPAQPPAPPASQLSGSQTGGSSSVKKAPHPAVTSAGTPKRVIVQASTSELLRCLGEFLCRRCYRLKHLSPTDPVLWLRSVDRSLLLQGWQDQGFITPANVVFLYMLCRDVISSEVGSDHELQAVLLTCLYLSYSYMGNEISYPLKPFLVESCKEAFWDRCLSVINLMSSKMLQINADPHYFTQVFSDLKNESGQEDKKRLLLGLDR
T2 sequence (P50613 whole entry): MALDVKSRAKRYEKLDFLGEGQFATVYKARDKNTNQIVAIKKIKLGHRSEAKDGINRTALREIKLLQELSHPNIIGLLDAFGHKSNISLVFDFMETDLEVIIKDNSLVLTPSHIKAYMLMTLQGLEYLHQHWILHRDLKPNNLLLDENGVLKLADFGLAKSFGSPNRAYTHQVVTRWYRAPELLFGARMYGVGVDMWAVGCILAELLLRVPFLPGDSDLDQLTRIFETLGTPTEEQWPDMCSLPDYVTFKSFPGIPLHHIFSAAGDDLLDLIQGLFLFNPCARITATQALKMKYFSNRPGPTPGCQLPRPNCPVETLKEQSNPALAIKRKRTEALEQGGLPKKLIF
T2 sequence (P51946 whole entry partner): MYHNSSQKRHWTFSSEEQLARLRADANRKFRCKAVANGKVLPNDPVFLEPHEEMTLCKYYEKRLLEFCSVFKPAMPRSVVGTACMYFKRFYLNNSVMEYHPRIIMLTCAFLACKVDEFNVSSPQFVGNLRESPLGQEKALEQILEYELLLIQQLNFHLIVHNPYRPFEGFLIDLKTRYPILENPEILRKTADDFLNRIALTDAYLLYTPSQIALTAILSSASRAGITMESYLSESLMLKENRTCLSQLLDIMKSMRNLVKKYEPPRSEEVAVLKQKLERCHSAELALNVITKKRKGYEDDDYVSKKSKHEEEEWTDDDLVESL
T2 sequence (P51948 whole entry partner): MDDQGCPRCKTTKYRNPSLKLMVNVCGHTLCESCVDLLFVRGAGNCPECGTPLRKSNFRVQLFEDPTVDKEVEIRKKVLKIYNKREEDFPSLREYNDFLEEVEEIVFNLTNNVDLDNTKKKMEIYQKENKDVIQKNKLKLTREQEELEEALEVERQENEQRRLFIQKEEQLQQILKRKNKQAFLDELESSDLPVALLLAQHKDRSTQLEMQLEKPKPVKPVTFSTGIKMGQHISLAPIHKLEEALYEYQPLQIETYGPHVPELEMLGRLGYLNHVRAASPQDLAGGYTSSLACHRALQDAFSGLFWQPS
T1 sequence (P06493 whole entry): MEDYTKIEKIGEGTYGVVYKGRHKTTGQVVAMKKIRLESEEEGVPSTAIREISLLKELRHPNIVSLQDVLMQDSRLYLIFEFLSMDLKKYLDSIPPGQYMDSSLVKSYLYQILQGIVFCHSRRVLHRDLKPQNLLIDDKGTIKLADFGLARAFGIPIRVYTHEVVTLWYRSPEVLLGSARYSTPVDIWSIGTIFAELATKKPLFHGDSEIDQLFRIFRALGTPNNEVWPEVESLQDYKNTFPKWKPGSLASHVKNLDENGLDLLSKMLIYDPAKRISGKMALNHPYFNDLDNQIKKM
T1 sequence (P14635 whole entry partner): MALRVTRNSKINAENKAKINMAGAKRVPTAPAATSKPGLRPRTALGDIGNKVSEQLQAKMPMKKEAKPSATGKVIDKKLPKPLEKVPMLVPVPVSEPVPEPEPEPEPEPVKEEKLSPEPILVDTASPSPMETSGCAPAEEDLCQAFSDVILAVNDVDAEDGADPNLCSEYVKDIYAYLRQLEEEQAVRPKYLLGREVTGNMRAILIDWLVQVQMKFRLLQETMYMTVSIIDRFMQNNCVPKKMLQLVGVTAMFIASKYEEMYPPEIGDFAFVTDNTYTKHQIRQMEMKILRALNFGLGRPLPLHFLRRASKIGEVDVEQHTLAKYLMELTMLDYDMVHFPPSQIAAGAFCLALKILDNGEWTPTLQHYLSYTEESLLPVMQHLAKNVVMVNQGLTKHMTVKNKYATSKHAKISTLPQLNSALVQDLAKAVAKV

Structure (SMILES) | IC50 (H460) [nM] | IC50 (CDK1/Cyclin B) [nM] | IC50 (HCT116) [nM] | CDK1/CDK7: Selectivity of CDK7 inhibition over CDK1 inhibition (CDK7/Cyclin H/MNAT1) | CDK2/CDK7: Selectivity of CDK7 inhibition over CDK2 inhibition (CDK7/Cyclin H/MNAT1) | CDK5/CDK7: Selectivity of CDK7 inhibition over CDK5 inhibition (CDK7/Cyclin H/MNAT1) | IC50 (CDK7/Cyclin H/MNAT1) [nM] | IC50 (MOLT-4) [nM] | IC50 (CDK2/Cyclin A) [nM] | IC50 (CDK5/p25) [nM] | IC50 (RPMI-8226) [nM] | IC50 (MV4-11) [nM]
CCC(O)c1cnn2c(NCc3ccccc3-n3cccn3)nc(N3CCC(N)CC3)nc12 (racemic) [Compound 52] | 1000 to 10000 | > 1000 | > 10000 | C (C=less than 20 fold) | C (C=less than 20 fold) | C (C=less than 20 fold) | < 100 | 1000 to 10000 | 100 to 1000 | 100 to 1000 |  | 
CC(C)c1cnn2c(NCc3ccccc3-c3cc4ccccc4[nH]3)nc(N3CCCC(N)C3)nc12 (racemic) [Compound 125] |  | > 1000 |  | A (A=greater than 200 fold) | B (B=less than 200 fold, but greater than 20 fold) | B (B=less than 200 fold, but greater than 20 fold) | < 100 |  | > 1000 | > 1000 | 1000 to 10000 | 
CC(C)c1cnn2c(NCc3ccccc3-n3cccn3)cc(N3CCC(N)CC3)nc12 [Compound 1] | < 1000 | > 1000 | 1000 to 10000 | B (B=less than 200 fold, but greater than 20 fold) | B (B=less than 200 fold, but greater than 20 fold) | C (C=less than 20 fold) | < 100 | 1000 to 10000 | > 1000 | 100 to 1000 |  | 
CC(C)c1cnn2c(NCc3ccccc3-c3ccc4c(c3)CC(=O)N4)nc(N3CCC(N)CC3)nc12 [Compound 17] | 1000 to 10000 | > 1000 |  | B (B=less than 200 fold, but greater than 20 fold) | B (B=less than 200 fold, but greater than 20 fold) | C (C=less than 20 fold) | < 100 |  | 100 to 1000 | 100 to 1000 | 1000 to 10000 | 
CNC(=O)c1ccccc1CNc1nc(N2CCC(N)CC2)nc2c(C(C)C)cnn12 [Compound 19] |  | > 1000 |  | A (A=greater than 200 fold) | B (B=less than 200 fold, but greater than 20 fold) | B (B=less than 200 fold, but greater than 20 fold) | < 100 |  | 100 to 1000 | 100 to 1000 | < 1000 | 
CC(C)(C)c1cnn2c(NCc3ccccc3-n3cccn3)nc(N3CCC(N)CC3)nc12 [Compound 24] | < 1000 | 100 to 1000 | < 1000 | B (B=less than 200 fold, but greater than 20 fold) | B (B=less than 200 fold, but greater than 20 fold) | B (B=less than 200 fold, but greater than 20 fold) | < 100 | 1000 to 10000 | 100 to 1000 | < 100 |  | 
CC(C)c1cnn2c(NCc3ccccc3-n3cccn3)nc(NC3CCNCC3)nc12 [Compound 40] | < 1000 | > 1000 |  | A (A=greater than 200 fold) | B (B=less than 200 fold, but greater than 20 fold) | C (C=less than 20 fold) | < 100 | > 10000 | 100 to 1000 | 100 to 1000 |  | < 1000
CC(C)c1cnn2c(NCc3cccc(-n4cccn4)c3)nc(N3CCC(N)CC3)nc12 [Compound 47] | < 1000 | 100 to 1000 | < 1000 | B (B=less than 200 fold, but greater than 20 fold) | B (B=less than 200 fold, but greater than 20 fold) | C (C=less than 20 fold) | < 100 | 1000 to 10000 | 100 to 1000 | < 100 |  | 
CC(C)c1cnn2c(NCc3ccccc3NC3CCN(C)CC3)nc(N3CCC(N)CC3)nc12 [Compound 49] | 1000 to 10000 |  | 1000 to 10000 |  |  |  |  | 1000 to 10000 |  |  |  | 
CC(C)c1cnn2c(NCc3cccc(NC(=O)c4ccccc4)c3)nc(N3CCC(N)CC3)nc12 [Compound 50] | < 1000 |  | 1000 to 10000 |  |  |  |  | 1000 to 10000 |  |  |  | 
CC(C)c1cnn2c(NCc3cccc(Oc4ccccc4)c3)nc(N3CCC(N)CC3)nc12 [Compound 51] | 1000 to 10000 | > 1000 | 1000 to 10000 | B (B=less than 200 fold, but greater than 20 fold) | B (B=less than 200 fold, but greater than 20 fold) | B (B=less than 200 fold, but greater than 20 fold) | < 100 | 1000 to 10000 | > 1000 | > 1000 |  | 
CC(C)c1cnn2c(NCc3ccccc3N(C)C3CCN(C)CC3)nc(N3CCC(N)CC3)nc12 [Compound 53] | < 1000 |  | 1000 to 10000 |  |  |  |  | 1000 to 10000 |  |  |  | 
CC(=O)N(C)c1ccccc1CNc1nc(N2CCC(N)CC2)nc2c(C(C)C)cnn12 [Compound 64] | < 1000 | > 1000 |  | A (A=greater than 200 fold) | A (A=greater than 200 fold) | B (B=less than 200 fold, but greater than 20 fold) | < 100 | > 10000 | > 1000 | 100 to 1000 |  | < 1000
Cc1ccc(-n2cccn2)cc1CNc1nc(N2CCC(N)CC2)nc2c(C(C)C)cnn12 [Compound 75] | 1000 to 10000 | > 1000 |  | A (A=greater than 200 fold) | B (B=less than 200 fold, but greater than 20 fold) | B (B=less than 200 fold, but greater than 20 fold) | < 100 | 1000 to 10000 | > 1000 | 100 to 1000 |  | 
CC(C)c1cnn2c(NCc3ccccc3NC(=O)c3cccc(NC(=O)CCCN(C)C)c3)nc(N3CCC(N)CC3)nc12 [Compound 89] |  | > 1000 | 1000 to 10000 | A (A=greater than 200 fold) | A (A=greater than 200 fold) | B (B=less than 200 fold, but greater than 20 fold) | < 100 | 1000 to 10000 | > 1000 | 100 to 1000 |  | < 1000
CC(C)c1cnn2c(NCc3ccccc3-c3cc4ccccc4[nH]3)nc(N3CCC[C@@H](N)C3)nc12 [Compound 131] |  | > 1000 |  | B (B=less than 200 fold, but greater than 20 fold) | B (B=less than 200 fold, but greater than 20 fold) | B (B=less than 200 fold, but greater than 20 fold) | < 100 |  | > 1000 | > 1000 | 1000 to 10000 | 
CC(C)c1cnn2c(NCc3ccccc3-n3cccn3)nc(-c3ccc(C(=O)N4CCC(N)CC4)cc3)nc12 [Compound 172] | 1000 to 10000 | > 1000 | 1000 to 10000 | A (A=greater than 200 fold) | B (B=less than 200 fold, but greater than 20 fold) | B (B=less than 200 fold, but greater than 20 fold) | < 100 | 1000 to 10000 | 100 to 1000 | 100 to 1000 |  | 
CC(C)c1cnn2c(NCc3ccccc3-n3cccn3)nc(-c3ccc(Cl)c(OC4CCNCC4)c3)nc12 [Compound 173] | 1000 to 10000 | > 1000 |  | A (A=greater than 200 fold) | B (B=less than 200 fold, but greater than 20 fold) | B (B=less than 200 fold, but greater than 20 fold) | < 100 | 1000 to 10000 | > 1000 | 100 to 1000 |  | 
